These results are taken from publication PMC3365589 (Journal of the American Chemical Society, 2011).

One data set concerns human M3 mAChR. Put plainly: [3H]NMS binding inhibition, CHO cell membranes, M3. The settings on record: 1 μM.
Another data set has as its system human M5 mAChR. Kind of data set: [3H]NMS binding inhibition, CHO cell membranes, M5. The settings on record: 1 μM, M5, [3H]NMS.
Another data set deals with mice. The settings on record: intraperitoneal injection of a lethal dose.
In a further data set the test system is calcium channels. Kind of data set: Broad receptor binding screening. The settings on record: 10 μM.
In another data set the test system is human M1 mAChR. Put plainly: [3H]NMS binding inhibition, CHO cell membranes, M1. As to conditions: 1 μM.
The target of data set [1] is α1_2βγδ (Torpedo) nAChR. Kind of data set: Equilibrium competition binding with [125I]α-BTX on Torpedo membranes. As to conditions: read-out: Ki ± SEM.
Another data set concerns human M4 mAChR. Put plainly: [3H]NMS binding inhibition, CHO cell membranes, M4. The settings on record: 1 μM.
For a further data set, the system named is human M2 mAChR. Kind of data set: [3H]NMS binding inhibition, CHO cell membranes, M2. As to conditions: 1 μM.
Another data set concerns the target human α3β2 nAChR (Homo sapiens, UniProt P17787+P32297). In kind it is binding. As to conditions: read-out: Ki ± SEM, [3H]epibatidine.
The next data set deals with chimeric α7-5HT3 nAChR (UniProt P22770+P23979, M226I/T225I). The format is binding. The settings on record: read-out: Ki ± SEM; α7–5HT3 (chick), [125I]α-BTX.
Another data set addresses human α7 nAChR (Homo sapiens, UniProt P36544). In kind it is cell-based.
Another data set deals with human α4β2 nAChR (Homo sapiens, UniProt P17787+P43681). The format is binding.
In data set [2] the target is α1_2βγδ (Torpedo) nAChR. As to conditions: read-out: Kd of radioligand on muscle-type receptor; cited from earlier work.

On to `C=C1CCCC2=NC[C@H](C)[C@@H](C)C[C@@]23CCC(C(=O)O)=C[C@@H]3[C@@H]2O[C@]3(C[C@H]4CCC[C@@]5(CC[C@@]6(O[C@@H](CC[C@@]6(C)O)C1)O5)O4)C[C@@H](C)[C@@H](O)[C@H]2O3` [PnTX A, pinnatoxin A], for which the “Effect on 3H-NMS binding” value with human M3 mAChR, with human M1 mAChR, in the data set with human M4 mAChR and with human M2 mAChR was “no significant effect” each time. Besides, the Radiotracer displacement in the data set on human M5 mAChR was 35%. In addition, the “Toxicological profile (symptoms)” value in the data set on mice was “transient mouse hyperactivity, followed by a decrease in respiratory rate with prominent abdominal breathing leading to death due to respiratory paralysis”. Besides, the “Binding activity for calcium channels” value in the data set on calcium channels is given as “no significant binding activity”. The inhibition constant Ki on α1_2βγδ (Torpedo) nAChR [1] came to 2.8 ± 0.03 nM; at human α3β2 nAChR, 9.4 ± 1.9 nM; on chimeric α7-5HT3 nAChR, 0.35 ± 0.04 nM; on human α4β2 nAChR (read-out: Ki ± SEM, α4β2 (human), [3H]epibatidine), 15.6 ± 5.2 nM. For the same compound, the “Effect on rate of desensitization of ACh-evoked currents” value at human α7 nAChR (350 μM ACh, −60 mV) was “did not appear to affect the rate of desensitization”. For the same compound, on human α7 nAChR (0.1–50 nM, n = 6), the “Direct agonist effect (current evoked when applied on its own)” value is reported as “did not evoke any current”. In addition, at human α7 nAChR (after a 10–15 min washout), the “Reversibility of blocking action on α7 nAChR” value is “not reversible”. The “Fraction of [3H]epibatidine displaced (partial antagonist property)” value on human α4β2 nAChR was “approximately half”.

As to α-bungarotoxin [α-BTX], the Kd at α1_2βγδ (Torpedo) nAChR [2] was 0.05 nM.

In general, Ki refers to the equilibrium dissociation constant of an inhibitor or competing ligand from its target. The Kd is the equilibrium constant for the complex coming apart.
